Patent publication US20250346579A1, “PYRIDAZINONE COMPOUND AND PREPARATION METHOD THEREFOR, PHARMACEUTICAL COMPOSITION THEREOF, AND APPLICATION THEREOF” (CHINA PHARMACEUTICAL UNIVERSITY, priority 2021, published 2025)
pIC50: −log10 of the molar value. Like-named read-outs stand apart in the source and are kept apart here.

Target: T1, PARP7 (Homo sapiens, UniProt Q7Z3E1)
T1 construct: purchased BPS Bioscience
T1 sequence (Q7Z3E1 1-657): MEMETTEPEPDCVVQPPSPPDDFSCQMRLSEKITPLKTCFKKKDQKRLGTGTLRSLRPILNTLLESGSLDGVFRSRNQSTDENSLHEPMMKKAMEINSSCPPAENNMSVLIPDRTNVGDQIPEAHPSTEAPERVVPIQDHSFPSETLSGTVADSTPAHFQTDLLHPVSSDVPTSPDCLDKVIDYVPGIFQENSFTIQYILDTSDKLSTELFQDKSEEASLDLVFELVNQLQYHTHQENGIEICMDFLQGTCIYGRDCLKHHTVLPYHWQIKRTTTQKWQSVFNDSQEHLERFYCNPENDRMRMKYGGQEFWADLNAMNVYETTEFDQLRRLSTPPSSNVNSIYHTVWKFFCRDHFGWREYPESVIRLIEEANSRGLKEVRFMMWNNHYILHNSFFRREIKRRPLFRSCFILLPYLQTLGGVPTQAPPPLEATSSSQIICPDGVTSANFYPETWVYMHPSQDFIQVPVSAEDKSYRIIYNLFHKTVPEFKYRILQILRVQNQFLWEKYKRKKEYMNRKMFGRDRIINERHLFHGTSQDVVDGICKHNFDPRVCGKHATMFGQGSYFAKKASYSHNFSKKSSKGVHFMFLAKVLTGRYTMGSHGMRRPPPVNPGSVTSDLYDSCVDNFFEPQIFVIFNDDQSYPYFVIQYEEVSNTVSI
Test: Inhibitory activity of compounds on PARP7 enzyme (PARP7 Chemiluminescent Assay Kit)
Format: biochemical
Procedure: Experimental materials: PARP7 Chemiluminescent Assay Kit, BPS Bioscience; DMSO, China National Pharmaceutical Group, Nivo, PerkinElmer.
(1) Preparation of Solutions and Buffers:
Preparation of 10×PBS: 720 mg of KH2PO4, 45 g of NaCl and 5.311 g of Na2HPO4·12H2O were weighed respectively and dissolved in 500 mL of deionized water, a system pH value was adjusted to 7.4, sterilization was performed at 121° C. for 30 min, and the system after cooling was placed at 4° C. for later use.
Preparation of 1×PBS: 10×PBS was diluted 10 times with deionized water, that is, 9 parts of deionized water was added to 1 part of 10×PBS for dilution.
Preparation of wash buffer: 1×PBS contained 0.05% Tween-20.
Preparation of 1×PARP buffer (prepared freshly before use): 10×PARP buffer was diluted 10 times with deionized water and placed on ice for later use.
(2) Preparation of Compound Working Solution Concentration:
According to test requirements, a compound to be tested is diluted with 100% DMSO to a desired concentration, and then diluted 10 times with 1×PARP buffer to prepare a 10× compound working solution.
a. 5× histone mixture was thawed on ice one day prior to the experiment;
b. preparation of 1× histone mixture: 1× histone mixture was prepared through the 5× histone mixture by using 1×PBS; and 25 μL of 1× histone mixture was taken from each well and transferred into a test well plate and incubated overnight at 4° C.;
c. 100 μL of Blocking buffer was taken from each well and added to the test well plate and incubated for 90 min at 25° C.;
d. after the incubation was completed, the liquid in the test well plate was spin-dried, and the test well plate was washed repeatedly for 3 times;
e. 2.5 μL of the compound working solution was taken from each well and added to the test well plate according to an experimental layout diagram; and 1×PARP buffer with a corresponding volume of 10% DMSO was added to positive control wells (Positive Control), and 1×PARP buffer of a corresponding volume was added to blank control wells (Blank);
f. after the enzyme was completely dissolved, an enzyme stock solution was diluted with 1×PARP buffer to 6 ng/μL;
g. 10 μL of enzyme solution was taken from each well and added to the test well plate, the blank control wells were added with the corresponding volume of 1×PARP buffer, and in which case, the enzyme amount was 60 ng per well. Note: this step needs to be performed on ice;
h. 12.5 μL of master mixture was added to each well of the test well plate (12.5 μL master mixture included 1.25 μL of 10×PARP buffer, 1.25 μL of Opti-PARP 10× Assay mixture and 10 μL of water); the test well plate was sealed and incubated at 25° C. for 60 min;
i. after the incubation was completed, the liquid in the test well plate was spin-dried, and the test well plate was washed repeatedly for 3 times;
j. Streptavidin-HRP in a kit was diluted 50 times with a Blocking buffer, 25 μL was taken from each well and added to the test well plate, and incubated at 25° C. for 30 min;
k. after the incubation was completed, the liquid in the test well plate was spin-dried, and the test well plate was washed repeatedly for 3 times;
l. ELISA ECL Substrate A and ELISA ECL Substrate B in the kit was mixed to obtain a mixed solution according to a ratio of 1:1, 50 μL of the mixed solution was added to each well of the test well plate, Nivo was used to perform Luminescence detection immediately, and a luminous value (RLU) was read; and
m. calculation of an enzyme rate: Enzyme Activity=(RLU(Sample)−RLU(Blank))/(RLU(Pos.Ctrl)−RLU(Blank))×100%; and enzyme inhibition rate=1−% Enzyme Activity, and specific results were shown in Table 1 below.

[1] = chemiluminescence, symbols defined as IC50 classes, read-out: 100 nM Inhibition Rate
[2] = summary of Table 1, read-out: enzyme inhibition IC50 values

SMILES	pIC50 [1]	pIC50 [2]
C[C@@H](CCN1CC(C(=O)N2CCN(c3ncc(C(F)(F)F)cn3)CC2)C1)Nc1cn[nH]c(=O)c1C(F)(F)F [I-A-21, (S)-4-(trifluoromethyl)-5-((4-(3-(4-(5-(trifluoromethyl)pyrimidin-2-yl)piperazine-1-carbonyl)azetidin-1-yl)butan-2-yl)amino)pyridazin-3(2H)-one]	6.30 to 7.00	–
C[C@@H](CN1CC(C(=O)N2CCN(c3ncc(C(F)(F)F)cn3)CC2)C1)Nc1cn[nH]c(=O)c1Cl [I-A-22, (S)-4-chloro-5-((1-(3-(4-(5-(trifluoromethyl)pyrimidin-2-yl)piperazine-1-carbonyl)azetidin-1-yl)propan-2-yl)amino)pyridazin-3(2H)-one]	6.30 to 7.00	–
C[C@@H](CN1CC(C(=O)N2CCN(c3ncc(C(F)(F)F)cn3)CC2)C1)Nc1cn[nH]c(=O)c1Br [I-A-23, (S)-4-bromo-5-((1-(3-(4-(5-(trifluoromethyl)pyrimidin-2-yl)piperazine-1-carbonyl)azetidin-1-yl)propan-2-yl)amino)pyridazin-3(2H)-one]	6.30 to 7.00	–
O=C(C1CN(CC2(Nc3cn[nH]c(=O)c3C(F)(F)F)CC2)C1)N1CCN(c2ncc(C(F)(F)F)cn2)CC1 [I-A-24, 4-(trifluoromethyl)-5-((1-((3-(4-(5-(trifluoromethyl)pyrimidin-2-yl)piperazine-1-carbonyl)azetidin-1-yl)methyl)cyclopropyl)amino)pyridazin-3(2H)-one]	6.30 to 7.00	–
C[C@@H](CN1CC(C(=O)N2CCN(c3ccc4c(c3)OC(F)(F)O4)CC2)C1)Nc1cn[nH]c(=O)c1C(F)(F)F [I-B-1, (S)-5-((1-(3-(4-(2,2-difluorobenzo[d][1,3]dioxol-5-yl)piperazine-1-carbonyl)azetidin-1-yl)propan-2-yl)amino)-4-(trifluoromethyl)pyridazin-3(2H)-one]	> 7.00	> 7.00
C[C@@H](Cn1ccc(C(=O)N2CCN(c3ncc(C(F)(F)F)cn3)CC2)c1)Nc1cn[nH]c(=O)c1C(F)(F)F [I-C-1, (S)-4-(trifluoromethyl)-5-((1-(3-(4-(5-(trifluoromethyl)pyrimidin-2-yl)piperazine-1-carbonyl)-1H-pyrrol-1-yl)propan-2-yl)amino)pyridazin-3(2H)-one]	> 7.00	> 7.00
CC(CC1CN(C(=O)C2CCN(c3ncc(C(F)(F)F)cn3)CC2)C1)Nc1cn[nH]c(=O)c1C(F)(F)F [I-D-1, 4-(trifluoromethyl)-5-((1-(1-(1-(5-(trifluoromethyl)pyrimidin-2-yl)piperidine-4-carbonyl)azetidin-3-yl)propan-2-yl)amino)pyridazin-3(2H)-one]	> 7.00	> 7.00
O=C(NCCCCNc1cn[nH]c(=O)c1C(F)(F)F)N1CCN(c2ncc(C(F)(F)F)cn2)CC1 [I-E-1, N-(4-((6-oxo-5-(trifluoromethyl)-1,6-dihydropyridazin-4-yl)amino)butyl)-4-(5-(trifluoromethyl)pyrimidin-2-yl)piperazine-1-carboxamide]	> 7.00	> 7.00
O=C(NC/C=C/CNc1cn[nH]c(=O)c1C(F)(F)F)N1CCN(c2ncc(C(F)(F)F)cn2)CC1 [I-E-2, (E)-N-(4-((6-oxo-5-(trifluoromethyl)-1,6-dihydropyridazin-4-yl)amino)but-2-en-1-yl)-4-(5-(trifluoromethyl)pyrimidin-2-yl)piperazine-1-carboxamide]	> 7.00	> 7.00
O=C(Nc1cccc(CNc2cn[nH]c(=O)c2C(F)(F)F)c1)N1CCN(c2ncc(C(F)(F)F)cn2)CC1 [I-E-7, N-(3-(((6-oxo-5-(trifluoromethyl)-1,6-dihydropyridazin-4-yl)amino)methyl)phenyl)-4-(5-(trifluoromethyl)pyrimidin-2-yl)piperazine-1-carboxamide]	> 7.00	> 7.00
